Source: patent US20250275964A1, “METHODS OF INHIBITING LIVER-TYPE GLUTAMINASE, GLS2” (CORNELL UNIVERSITY, priority 2019, published 2025)

How the values were obtained:
Format in all cases: cell-based, human
MDA-MB-453 cells = test: 6-day cell proliferation assay, MDA-MB-453; settings: MDA-MB-453, proliferation over 6 days
Description: (§1) Human breast cancer cell lines MCF7, BT-474, T-47D, MDA-MB-453, MDA-MB-231, Hs 578T, HCC38, SK-BR-3, and DU4475 were purchased from the American Type Culture Collection (ATCC) and no additional cell authentication was performed. The TSE human breast cancer cell line was supplied by Dr. Steven Abcouwer (University of Michigan). All breast cancer cells were cultured at 37° C. under a 5% CO2 atmosphere in RPMI 1640 medium containing 2 mM glutamine (Gibco) and supplemented with 10% fetal bovine serum (FBS) (Gibco). The 293T cell line (ATCC) used for generating lentivirus particles was cultured as above but using DMEM, high glucose (Gibco).
(§2) Culture medium was added to 12-well plates (1 ml/well) and wells were seeded with cells at Day 0 as follows. MCF7, T-47D, BT-474, HCC38 cells: […] cells/well. MDA-MB-453 and MDA-MB-231 cells: 1×10^4 cells/well. TSE and Hs 578T cells: 0.3×10^4 cells/well. After 16 hours, culture medium was replaced with fresh medium supplemented with appropriate concentrations of inhibitors and was subsequently replaced every 48 hours. On Day 6 cells were trypsinized and suspended in an appropriate volume of culture medium, and the total number of cells per well was determined using a hemocytometer or a TC20 Automated Cell Counter (Bio-Rad).

MDA-MB-231 cells = test: 6-day cell proliferation assay, MDA-MB-231
Description: as §1, §2

TSE cells = test: 6-day cell proliferation assay, TSE
Description: as §1, §2

Hs 578T cells = test: 6-day cell proliferation assay, Hs 578T; settings: proliferation over 6 days
Description: as §1, §2

[1] = test system: MDA-MB-231 cells carrying the plasmid vector only; test: 6-day cell proliferation assay, MDA-MB-231 vector only; settings: 6 days
Description: as §2
(§3) Vectors for expressing human GAC or GLS2 in breast cancer cell lines were based on pCDNA3.1/V5-His TOPO (Thermo Fisher Scientific), with the appropriate gene sub-cloned in and the tag switched to HA-tag or myc-tag for immunofluorescence experiments. Vectors pQE80-GAC-72-598 and pQE80-GLS2-38-602, for expressing the processed forms of human GAC (residues 72 to 598) or GLS2 (residues 38 to 602) in E. coli, were described in Huang et al., “Characterization of the Interactions of Potent Allosteric Inhibitors with Glutaminase C, a Key Enzyme in Cancer Cell Glutamine Metabolism,” J. Biol. Chem. 293:3535-3545 (2018), which is hereby incorporated by reference in its entirety.
(§4) For 60 mm dish format. […]

[2] = test system: MDA-MB-231 cells stably expressing GLS2; test: 6-day cell proliferation assay, MDA-MB-231 stably expressing GLS2
Description: as §2, §3
(§5) For 60 mm dish format. 0.2 ml Opti-MEM (Gibco) containing […] of the appropriate DNA construct, along with 0.2 ml Opti-MEM containing 12 μl Lipofectamine 2000 (Invitrogen), were separately incubated at room temperature for 5 min. The two solutions were combined and incubated for an additional 20 min, mixed with 1.6 ml culture medium and added to cells. After 5 hours incubation at 37° C. the transfection mixture was replaced with fresh culture medium, and cells were then incubated for an additional 48 hours to allow for ectopic expression of GLS or GLS2. To select for cells stably expressing the DNA construct, culture medium supplemented with 500 μg/ml G-418 disulfate (Research Products International) was added and replaced every 2 days for 2-3 weeks until isolated colonies ˜2 mm in diameter were present. Individual colonies were transferred to a 12-well plate (1 colony per well) using sterile blotting paper soaked in trypsin solution and were then cultured in medium supplemented with 250 μg/ml G-418 disulfate. All colonies were screened by western blot for ectopic expression, and positive clones were maintained in medium supplemented with 250 μg/ml G-418 disulfate.

[3] = test system: TSE cells carrying the plasmid vector only; test: 6-day cell proliferation assay, TSE vector only; settings: 6 days
Description: as §2, §3, §4

[4] = test system: TSE cells stably expressing GLS2; test: 6-day cell proliferation assay, TSE stably expressing GLS2
Description: as §2, §3, §5

[5] = MDA-MB-231 (parental), compared with GLS2 clones, 6 days
[6] = MDA-MB-231, proliferation over 6 days
[7] = TSE (parental), compared with GLS2 clones, 6 days
[8] = MDA-MB-231 GLS2 clone 1, 6 days
[9] = MDA-MB-231 GLS2 clone 2, 6 days

Row | SMILES | EC50 (MDA-MB-453 cells) | EC50 (MDA-MB-231 cells; [5]) | EC50 (MDA-MB-231 cells; [6]) | EC50 (TSE cells; [7]) | EC50 (TSE cells; TSE, proliferation over 6 days) | EC50 (Hs 578T cells) | EC50 [1] | EC50 [2, 8] | EC50 [2, 9] | EC50 ([2]; MDA-MB-231 with ectopic expression of GLS2, 6 days) | EC50 [3] | EC50 ([4]; TSE GLS2 clone 1, 6 days) | EC50 ([4]; TSE GLS2 clone 2, 6 days) | EC50 ([4]; TSE with ectopic expression of GLS2, 6 days)
1 | O=C(Cc1ccccc1)Nc1nnc(CCSCCc2nnc(NC(=O)Cc3ccccc3)s2)s1 [BPTES] | ~20 µM | 2 µM | 2.1 µM | 3 µM | 3.1 µM | 3.7 µM | 1.3 µM | > 20 µM | > 20 µM | > 20 µM | 4 µM | > 20 µM | > 20 µM | > 20 µM
2 | CN(C)c1ccc(C2Nc3ccc4ccccc4c3C3=C2C(=O)CC(C)(C)C3)cc1Br (centres unmarked) [Compound 968] | 3 µM | 4 µM | 5 µM | 4 µM | 5 µM | 4 µM | 2 µM | 4 µM | 5 µM |  | 2 µM | 7 µM | 6 µM | 
